In patent US20050209220A1, “Treatment of peripheral neuropathy” (priority 2004, published 2005):
Counter-ions that a name gives are not always drawn.

Test system: diabetic patient with neuropathy of the lower extremities
Assay: Case reports: diabetic patients with neuropathy / pain of the lower extremities
Format: in vivo, human
Description: 2. A diabetic patient with severe pains in their legs reported that it was very difficult for them to sleep with the pain. At first, they were instructed to take the one-half the regimen described in Example 1, that is 10 mgs of desipramine and 1 mg of fluphenazine at bedtime. […] 3. A diabetic patient with neuropathy of the lower extremities was prescribed 10 mgs of desipramine alone orally every twelve hours. […] 4. A diabetic patient with severe pain in the lower legs and feet was instructed to take 1 mg of fluphenazine hydrochloride orally every twelve hours beginning at bedtime. […] 5. A diabetic patient with severe lower extremity neuropathy manifested as pain in the lower legs and feet was instructed to take 2 mgs of fluphenazine hydrochloride orally every twelve hours beginning at bedtime.

Structure (SMILES)	patient-reported pain reduction (diabetic patient (Example 3), desipramine alone, 10 mgs orally every twelve hours (20 mgs/day))	patient-reported pain reduction (diabetic patient (Example 3), desipramine alone, higher dosage of 40 mgs per day)	patient-reported pain reduction (diabetic patient (Example 4), fluphenazine hydrochloride alone, 1 mg orally every twelve hours, after two weeks)	patient-reported pain reduction (diabetic patient (Example 5), fluphenazine hydrochloride alone, 2 mgs orally every twelve hours, after two weeks)	patient-reported pain reduction (diabetic patient (Example 5), fluphenazine hydrochloride alone, 4 mgs every twelve hours)
CNCCCN1c2ccccc2CCc2ccccc21 [desipramine]	lack of effectiveness in reducing pain	lack of effectiveness in reducing pain	–	–	–
OCCN1CCN(CCCN2c3ccccc3Sc3ccc(C(F)(F)F)cc32)CC1 [fluphenazine hydrochloride]	–	–	somewhat of an improvement in pain reduction, but not complete elimination	somewhat of an improvement in pain reduction, but not complete elimination	substantial improvement in reducing the severity of pain
